Tested on: Transport facilitation protein genes
Assay: DNA chip mRNA expression in yeast, transport facilitation protein genes (Table 5)
Assay type: cell-based, Saccharomyces cerevisiae S288C
In short: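 First, S288C yeast grown in YPD at 25° C. are dosed in log phase with one toxicant (growth-inhibiting, not lethal) for 2 h. Next, total RNA is extracted and poly(A) mRNA isolated and reverse-transcribed with Cy3/Cy5-dUTP. Finally, whole-genome chip fluorescence is read relative to unexposed cells.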

With `Oc1cc(Cl)c(Cl)cc1Cl` [(6), 2,4,5-trichlorophenol] the “The level of expressed mRNA in the presence of chemical substance/The level of expressed mRNA in the absence of chemical substance” value (yeast gene YGR281W) was 1.9, the “The level of expressed mRNA in the presence of chemical substance/The level of expressed mRNA in the absence of chemical substance” value (yeast gene YHL035C) was 4.1 and the “The level of expressed mRNA in the presence of chemical substance/The level of expressed mRNA in the absence of chemical substance” value (yeast gene YHL040C) was 7.3. The “The level of expressed mRNA in the presence of chemical substance/The level of expressed mRNA in the absence of chemical substance” value (yeast gene YHL047C) was 8.4, the “The level of expressed mRNA in the presence of chemical substance/The level of expressed mRNA in the absence of chemical substance” value (yeast gene YHR026W) was 1.3 and the “The level of expressed mRNA in the presence of chemical substance/The level of expressed mRNA in the absence of chemical substance” value (yeast gene YHR092C) was 1.7. For the same molecule, the “The level of expressed mRNA in the presence of chemical substance/The level of expressed mRNA in the absence of chemical substance” value (yeast gene YHR094C) was 1.6, the “The level of expressed mRNA in the presence of chemical substance/The level of expressed mRNA in the absence of chemical substance” value (yeast gene YHR175W) was 1.0 and the “The level of expressed mRNA in the presence of chemical substance/The level of expressed mRNA in the absence of chemical substance” value (yeast gene YIL006W) was 0.3. For the same molecule, the “The level of expressed mRNA in the presence of chemical substance/The level of expressed mRNA in the absence of chemical substance” value (yeast gene YIL022W) was 1.2, the “The level of expressed mRNA in the presence of chemical substance/The level of expressed mRNA in the absence of chemical substance” value (yeast gene YIL056W) was 1.0 and the “The level of expressed mRNA in the presence of chemical substance/The level of expressed mRNA in the absence of chemical substance” value (yeast gene YIL088C) was 2.2. The “The level of expressed mRNA in the presence of chemical substance/The level of expressed mRNA in the absence of chemical substance” value (yeast gene YJL034W) was 1.1, the “The level of expressed mRNA in the presence of chemical substance/The level of expressed mRNA in the absence of chemical substance” value (yeast gene YJL212C) was 1.1 and the “The level of expressed mRNA in the presence of chemical substance/The level of expressed mRNA in the absence of chemical substance” value (yeast gene YJL219W) was 1.5. The “The level of expressed mRNA in the presence of chemical substance/The level of expressed mRNA in the absence of chemical substance” value (yeast gene YJR077C) was 0.9, the “The level of expressed mRNA in the presence of chemical substance/The level of expressed mRNA in the absence of chemical substance” value (yeast gene YJR106W) was 1.2 and the “The level of expressed mRNA in the presence of chemical substance/The level of expressed mRNA in the absence of chemical substance” value (yeast gene YJR121W) was 1.5. The “The level of expressed mRNA in the presence of chemical substance/The level of expressed mRNA in the absence of chemical substance” value (yeast gene YKL016C) was 0.8, the “The level of expressed mRNA in the presence of chemical substance/The level of expressed mRNA in the absence of chemical substance” value (yeast gene YKL146W) was 1.3 and the “The level of expressed mRNA in the presence of chemical substance/The level of expressed mRNA in the absence of chemical substance” value (yeast gene YKR039W) was 2.8. The “The level of expressed mRNA in the presence of chemical substance/The level of expressed mRNA in the absence of chemical substance” value (yeast gene YKR067W) was 1.8, the “The level of expressed mRNA in the presence of chemical substance/The level of expressed mRNA in the absence of chemical substance” value (yeast gene YLL028W) was 1.7 and the “The level of expressed mRNA in the presence of chemical substance/The level of expressed mRNA in the absence of chemical substance” value (yeast gene YLL055W) was 1.4. The “The level of expressed mRNA in the presence of chemical substance/The level of expressed mRNA in the absence of chemical substance” value (yeast gene YLR081W) was 0.9, the “The level of expressed mRNA in the presence of chemical substance/The level of expressed mRNA in the absence of chemical substance” value (yeast gene YLR295C) was 1.1 and the “The level of expressed mRNA in the presence of chemical substance/The level of expressed mRNA in the absence of chemical substance” value (yeast gene YLR348C) was 1.9. The “The level of expressed mRNA in the presence of chemical substance/The level of expressed mRNA in the absence of chemical substance” value (yeast gene YLR378C) was 1.2, the “The level of expressed mRNA in the presence of chemical substance/The level of expressed mRNA in the absence of chemical substance” value (yeast gene YMR011W) was 0.6 and the “The level of expressed mRNA in the presence of chemical substance/The level of expressed mRNA in the absence of chemical substance” value (yeast gene YMR058W) was 2.6. For the same molecule, the “The level of expressed mRNA in the presence of chemical substance/The level of expressed mRNA in the absence of chemical substance” value (yeast gene YMR162C) was 1.0, the “The level of expressed mRNA in the presence of chemical substance/The level of expressed mRNA in the absence of chemical substance” value (yeast gene YMR203W) was 1.1 and the “The level of expressed mRNA in the presence of chemical substance/The level of expressed mRNA in the absence of chemical substance” value (yeast gene YNL055C) was 2.6. The “The level of expressed mRNA in the presence of chemical substance/The level of expressed mRNA in the absence of chemical substance” value (yeast gene YNL259C) was 3.9, the “The level of expressed mRNA in the presence of chemical substance/The level of expressed mRNA in the absence of chemical substance” value (yeast gene YNR072W) was 0.9 and the “The level of expressed mRNA in the presence of chemical substance/The level of expressed mRNA in the absence of chemical substance” value (yeast gene YOL119C) was 0.9. For the same molecule, the “The level of expressed mRNA in the presence of chemical substance/The level of expressed mRNA in the absence of chemical substance” value (yeast gene YOL156W) was 1.2, the “The level of expressed mRNA in the presence of chemical substance/The level of expressed mRNA in the absence of chemical substance” value (yeast gene YOL163W) was 0.5 and the “The level of expressed mRNA in the presence of chemical substance/The level of expressed mRNA in the absence of chemical substance” value (yeast gene YOR035C) was 1.9. For the same molecule, the “The level of expressed mRNA in the presence of chemical substance/The level of expressed mRNA in the absence of chemical substance” value (yeast gene YOR130C) was 1.6, the “The level of expressed mRNA in the presence of chemical substance/The level of expressed mRNA in the absence of chemical substance” value (yeast gene YOR153W) was 7.4 and the “The level of expressed mRNA in the presence of chemical substance/The level of expressed mRNA in the absence of chemical substance” value (yeast gene YOR270C) was 1.8. For the same molecule, the “The level of expressed mRNA in the presence of chemical substance/The level of expressed mRNA in the absence of chemical substance” value (yeast gene YOR273C) was 0.4, the “The level of expressed mRNA in the presence of chemical substance/The level of expressed mRNA in the absence of chemical substance” value (yeast gene YOR316C) was 0.9 and the “The level of expressed mRNA in the presence of chemical substance/The level of expressed mRNA in the absence of chemical substance” value (yeast gene YOR328W) was 2.9. For the same molecule, the “The level of expressed mRNA in the presence of chemical substance/The level of expressed mRNA in the absence of chemical substance” value (yeast gene YOR332W) was 1.8, the “The level of expressed mRNA in the presence of chemical substance/The level of expressed mRNA in the absence of chemical substance” value (yeast gene YOR348C) was 0.7 and the “The level of expressed mRNA in the presence of chemical substance/The level of expressed mRNA in the absence of chemical substance” value (yeast gene YPL036W) was 0.7. The “The level of expressed mRNA in the presence of chemical substance/The level of expressed mRNA in the absence of chemical substance” value (yeast gene YPL134C) was 1.2, the “The level of expressed mRNA in the presence of chemical substance/The level of expressed mRNA in the absence of chemical substance” value (yeast gene YPL265W) was 2.3 and the “The level of expressed mRNA in the presence of chemical substance/The level of expressed mRNA in the absence of chemical substance” value (yeast gene YPL271W) was 3.3. The “The level of expressed mRNA in the presence of chemical substance/The level of expressed mRNA in the absence of chemical substance” value (yeast gene YPR124W) was 2.0, the “The level of expressed mRNA in the presence of chemical substance/The level of expressed mRNA in the absence of chemical substance” value (yeast gene YPR192W) was 0.9 and the “The level of expressed mRNA in the presence of chemical substance/The level of expressed mRNA in the absence of chemical substance” value (yeast gene YPR194C) was 1.5.
